In patent US12187709B2 (Genentech, Inc., priority 2021, dated 2025):

Assays:
[1] = target: Cbl-b (Homo sapiens (Human), UniProt Q13191); experiment: Cbl-b LCK Ub TR-FRET assay (Cbl-b Lck HTRF); type: biochemical; conditions: for IC50: Cbl-b LCK Ub TR-FRET; for (fold-selectivity) Cbl-b and C-Cbl Selectivity / fold-selectivity (Cbl-b over C-cbl): ratio C-cbl Lck HTRF IC50 / Cbl-b Lck HTRF IC50
Procedure, shortened: (§1)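 Detection reagents added, brief spin, 20 min RT. IC50 fit normalized to no-LCK (low) and DMSO (high) controls.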

[2] = target: c-Cbl (residues 47-435) (Homo sapiens (Human), UniProt P22681); experiment: c-Cbl SPR assay; type: binding; conditions: 20° C.
Procedure, shortened: (§2)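 SPR, multi-cycle, 6-pt 2-fold series, blanks flanking for double referencing; capture 1300-1500 RU; contact 60 s at 40 μl/min; dissoc. 120-1200 s (~4-5 half-lives). 1:1 fit. Chaser variant: single cycle, 5 conc., top 500 nM, 120 s contact, 450 s dissociation.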

[3] = target: Human Cbl-b (residues 40-426) (Homo sapiens (Human), UniProt Q13191); experiment: Cbl-b SPR assay; type: binding; conditions: for Fold of selectivity: C-cbl SPR Kd vs Cbl-b SPR Kd; for Kd: SPR, 20° C.
Procedure, shortened: as §2

[4] = target: c-Cbl (Homo sapiens (Human), UniProt P22681); experiment: C-Cbl LCK Ub TR-FRET assay (C-cbl Lck HTRF); type: biochemical
Procedure, shortened: as §1

Sequence of c-Cbl (P22681 47-435): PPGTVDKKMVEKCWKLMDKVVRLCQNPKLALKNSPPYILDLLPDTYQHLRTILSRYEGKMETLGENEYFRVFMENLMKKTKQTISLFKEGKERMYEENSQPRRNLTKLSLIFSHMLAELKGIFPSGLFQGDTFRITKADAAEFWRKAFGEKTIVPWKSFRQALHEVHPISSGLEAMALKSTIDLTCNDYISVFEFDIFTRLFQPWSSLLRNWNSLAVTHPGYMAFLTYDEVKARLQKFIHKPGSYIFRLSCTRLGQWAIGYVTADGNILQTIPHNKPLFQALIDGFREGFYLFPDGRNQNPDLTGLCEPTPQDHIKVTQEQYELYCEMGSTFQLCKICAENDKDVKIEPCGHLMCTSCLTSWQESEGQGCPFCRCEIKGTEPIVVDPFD
Sequence of c-Cbl (residues 47-435) (P22681 47-435): as above
Sequence of Cbl-b (Q13191 40-426): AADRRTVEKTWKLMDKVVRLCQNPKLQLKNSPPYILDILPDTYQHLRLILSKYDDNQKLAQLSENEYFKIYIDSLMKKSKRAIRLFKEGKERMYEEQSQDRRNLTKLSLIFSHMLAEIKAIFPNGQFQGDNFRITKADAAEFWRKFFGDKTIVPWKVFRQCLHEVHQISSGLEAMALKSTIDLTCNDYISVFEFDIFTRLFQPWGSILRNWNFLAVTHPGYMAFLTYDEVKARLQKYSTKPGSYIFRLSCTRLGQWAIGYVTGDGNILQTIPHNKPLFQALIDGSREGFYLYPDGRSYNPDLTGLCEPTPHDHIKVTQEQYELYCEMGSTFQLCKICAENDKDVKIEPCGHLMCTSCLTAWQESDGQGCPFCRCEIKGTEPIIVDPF
Sequence of Human Cbl-b (residues 40-426) (Q13191 40-426): as above

Row | IC50 ([1]; Example 121) | (fold-selectivity) Cbl-b and C-Cbl Selectivity [1] | Kd [2] | Fold of selectivity [3] | Kd [3] | IC50 [4] | IC50 [1] | fold-selectivity (Cbl-b over C-cbl) [1] | SMILES
1 | 6.5 nM | 1.1x | 3.6 nM | 3.3× | 1.1 nM | 7.1 nM | – | – | CC(C)CNCc1cc2c(c(C(F)(F)F)c1)CN(c1cccc([C@H](c3nncn3C)C3COC3)c1)C2=O (single isomer, unassigned) [Compound 464]
2 | 6.2 nM | 1.4x | 9.1 nM | 3.6× | 2.5 nM | 8.6 nM | – | – | Cn1cnnc1[C@@H](c1cccc(N2Cc3c(cc(CNC4(C)CC4)cc3C(F)(F)F)C2=O)c1)C1COC1 (single isomer, unassigned) [Compound 466]
3 | 5.2 nM | 1.4x | 12 nM | 7× | 1.6 nM | 7.5 nM | – | – | Cn1cnnc1[C@@H](c1cccc(N2Cc3c(cc(CNCC(C)(C)C)cc3C(F)(F)F)C2=O)c1)C1COC1 (single isomer, unassigned) [Compound 468]
4 | 22 nM | 8.0x | 450 nM | 8.1× | 55 nM | 180 nM | – | – | CO[C@H]1C[C@](c2cccc(N3Cc4c(cc(CN[C@@H]5C[C@H]5C(C)(F)F)cc4C(F)(F)F)C3=O)c2)(c2nncn2C)C1 (single isomer, unassigned) [Compound 506]
5 | – | – | 490 nM | 4.1× | 120 nM | 540 nM | 200 nM | (2.7x) | CO[C@H]1C[C@@H]([C@@H](c2cccc(N3Cc4c(cc(CN5CCN(C)C[C@@H]5C(C)C)cc4C(F)(F)F)C3=O)c2)c2nncn2C)C1 (stereo in doubt) [Compound 13, 6-(((S)-2-isopropyl-4-methylpiperazin-1-yl)methyl)-2-(3-((S)-((1 S,3S)-3-methoxycyclobutyl)(4-methyl-4H-1,2,4-triazol-3-yl)methyl)phenyl)-4-(trifluoromethyl)isoindolin-1-one]
6 | – | – | 2400 nM | 1.0× | 2500 nM | 960 nM | 750 nM | 1.3x | Cn1cnnc1C(F)(c1cccc(N2Cc3c(cc(CNC4(C)CCC4)cc3C(F)(F)F)C2=O)c1)C1(F)COC1 (stereo in doubt) [Compound 403, (S)-2-(3-(fluoro(3-fluorooxetan-3-yl)(4-methyl-4H-1,2,4-triazol-3-yl)methyl)phenyl)-6-(((1-methylcyclobutyl)amino)methyl)-4-(trifluoromethyl)isoindolin-1-one]
7 | 4.8 nM | 1.0x | 2.2 nM | 2.6× | 0.85 nM | 4.9 nM | – | – | Cn1cnnc1C(F)(c1cccc(N2Cc3c(cc(CNC4(C)CCC4)cc3C(F)(F)F)C2=O)c1)C1(F)COC1 (stereo in doubt) [Compound 404, (R)-2-(3-(fluoro(3-fluorooxetan-3-yl)(4-methyl-4H-1,2,4-triazol-3-yl)methyl)phenyl)-6-(((1-methylcyclobutyl)amino)methyl)-4-(trifluoromethyl)isoindolin-1-one]
8 | – | – | 5.7 nM | 4.4× | 1.3 nM | 25 nM | 27 nM | (0.93x) | CCNc1cc(C2(c3nncn3C)CC3(COC3)C2)cc(N2Cc3c(cc(CNC4(C)CCC4)cc3C(F)(F)F)C2=O)n1 [Compound 7, 2-(6-(ethylamino)-4-(6-(4-methyl-4H-1,2,4-triazol-3-yl)-2-oxaspiro[3.3]heptan-6-yl)pyridin-2-yl)-6-(((1-methylcyclobutyl)amino)methyl)-4-(trifluoro-methyl)isoindolin-1-one]
9 | – | – | 23 nM | 6.9× | 3.3 nM | 43 nM | 11 nM | 3.9x | CO[C@H]1C[C@@](c2cc(NC3CCCC3)nc(N3Cc4c(cc(CNC5(C)CCC5)cc4C(F)(F)F)C3=O)c2)(c2nncn2C)C1 [Compound 8, 2-(6-(cyclopentylamino)-4-((1s,3s)-3-methoxy-1-(4-methyl-4H-1,2,4-triazol-3-yl)cyclobutyl)pyridin-2-yl)-6-(((1-methylcyclobutyl)amino)methyl)-4-(trifluoromethyl)isoindolin-1-one]
10 | – | – | 220 nM | 20× | 11 nM | 118 nM | 11 nM | 8.4x | CO[C@H]1C[C@](c2cc(NC3CCCC3)nc(N3Cc4c(cc(CNC5(C)CCC5)cc4C(F)(F)F)C3=O)c2)(c2nncn2C)C1 [Compound 9, 2-(6-(cyclopentylamino)-4-((1r,3r)-3-methoxy-1-(4-methyl-4H-1,2,4-triazol-3-yl)cyclobutyl)pyridin-2-yl)-6-(((1-methylcyclobutyl)amino)methyl)-4-(trifluoromethyl)isoindolin-1-one]
11 | – | – | 0.34 nM | 1.3× | 0.25 nM | 5.2 nM | 6.9 nM | (0.75x) | Cn1cnnc1C1(c2cc(C3CC3)nc(N3Cc4c(cc(CNC5(C)CCC5)cc4C(F)(F)F)C3=O)c2)CC(F)(F)C1 [Compound 16, 2-(6-cyclopropyl-4-(3,3-difluoro-1-(4-methyl-4H-1,2,4-triazol-3-yl)cyclobutyl)pyridin-2-yl)-6-(((1-methylcyclobutyl)amino)methyl)-4-(trifluoromethyl)isoindolin-1-one]
12 | – | – | 1.1 nM | 3.2× | 0.37 nM | 5.1 nM | 5.5 nM | (0.93x) | CCNc1cc(C2(c3nncn3C)CC(F)(F)C2)cc(N2Cc3c(cc(CNC4(C)CCC4)cc3C(F)(F)F)C2=O)n1 [Compound 17, 2-(4-(3,3-difluoro-1-(4-methyl-4H-1,2,4-triazol-3-yl)cyclobutyl)-6-(ethylamino)pyridin-2-yl)-6-(((1-methylcyclobutyl)amino)methyl)-4-(trifluoromethyl)isoindolin-1-one]
13 | – | – | 5.6 nM | 3.7× | 1.5 nM | 7.7 nM | 7.9 nM | (0.97x) | C=C1CC(c2cccc(N3Cc4c(cc(CNC5(C)CCC5)cc4C(F)(F)F)C3=O)c2)(c2nncn2C)C1 [Compound 18, 2-(3-(1-(4-methyl-4H-1,2,4-triazol-3-yl)-3-methylenecyclobutyl)phenyl)-6-(((1-methylcyclobutyl)amino)methyl)-4-(trifluoromethyl)-isoindolin-1-one]
14 | – | – | 200 nM | 5.0× | 40 nM | 176 nM | 88 nM | (2.0x) | Cn1cnnc1C1(c2cccc(N3Cc4c(cc(CNC5(C)CCC5)cc4C(F)(F)F)C3=O)c2)CC(=O)C1 [Compound 19, 2-(3-(1-(4-methyl-4H-1,2,4-triazol-3-yl)-3-oxocyclobutyl)phenyl)-6-(((1-methylcyclobutyl)-amino)methyl)-4-(trifluoromethyl)isoindolin-1-one]
15 | – | – | 350 nM | 4.4× | 80 nM | 390 nM | 170 nM | (2.3x) | Cn1cnnc1[C@]1(c2cccc(N3Cc4c(cc(CNC5(C)CCC5)cc4C(F)(F)F)C3=O)c2)C[C@@H](O)C1 [Compound 20, 2-(3-((1r,3r)-3-hydroxy-1-(4-methyl-4H-1,2,4-triazol-3-yl)cyclobutyl)phenyl)-6-(((1-methylcyclobutyl)amino)methyl)-4-(trifluoromethyl)isoindolin-1-one]
16 | – | – | 22 nM | 5.3× | 4.1 nM | 41 nM | 18 nM | (2.3x) | Cn1cnnc1[C@]1(c2cccc(N3Cc4c(cc(CNC5(C)CCC5)cc4C(F)(F)F)C3=O)c2)C[C@H](O)C1 [Compound 21, 2-(3-((1s,3s)-3-hydroxy-1-(4-methyl-4H-1,2,4-triazol-3-yl)cyclobutyl)phenyl)-6-(((1-methylcyclobutyl)amino)methyl)-4-(trifluoromethyl)isoindolin-1-one]
17 | – | – | 15 nM | 8.4× | 1.7 nM | 23 nM | 13 nM | (1.8x) | Cn1cnnc1[C@]1(c2cccc(N3Cc4c(cc(CNC5(C)CCC5)cc4C(F)(F)F)C3=O)c2)C[C@@H](C#N)C1 [Compound 24, (1r,3r)-3-(4-methyl-4H-1,2,4-triazol-3-yl)-3-(3-(6-(((1-methylcyclobutyl)amino)methyl)-1-oxo-4-(trifluoromethyl)isoindolin-2-yl)phenyl)cyclobutanecarbonitrile]
18 | – | – | 22 nM | 5.4× | 4 nM | 36 nM | 14 nM | (2.6x) | Cn1cnnc1[C@]1(c2cccc(N3Cc4c(cc(CNC5(C)CCC5)cc4C(F)(F)F)C3=O)c2)C[C@H](C#N)C1 [Compound 25, (1s,3s)-3-(4-methyl-4H-1,2,4-triazol-3-yl)-3-(3-(6-(((1-methylcyclobutyl)amino)methyl)-1-oxo-4-(trifluoromethyl)isoindolin-2-yl)phenyl)cyclobutanecarbonitrile]
